Results: patent publication US20070172470A1, “Phosphatase regulation of nucleic acid transcription” (The Regents of the University of California, priority 2003, published 2007)
Like-named read-outs stand apart in the source and are kept apart here.

Target: SCP1 (Homo sapiens, UniProt Q9GZU7)
Assay: PNθP phosphatase assay in the presence of phosphatase inhibitors
Format: biochemical

Chain of SCP1 (Q9GZU7 other isoform, or with tags, fused parts or gaps): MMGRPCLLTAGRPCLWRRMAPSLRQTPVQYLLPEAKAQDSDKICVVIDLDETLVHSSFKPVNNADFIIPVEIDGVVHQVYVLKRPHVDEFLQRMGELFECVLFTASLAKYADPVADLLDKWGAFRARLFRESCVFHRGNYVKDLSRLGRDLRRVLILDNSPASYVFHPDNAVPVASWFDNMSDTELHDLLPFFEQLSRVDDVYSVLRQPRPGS

Row | Compound | SCP1 phosphatase activity in the presence of phosphatase inhibitor (GST-SCP1 214 (40 pmol), 20 mM PNθP, 1-10 μM inhibitor) | SCP1 phosphatase activity in the presence of phosphatase inhibitor
1 | C=C1[C@@H](O)[C@@H]2O[C@]3(CC[C@H](/C=C/[C@@H](C)[C@@H]4CC(C)=C[C@@]5(O[C@H](C[C@@](C)(O)C(=O)O)CC[C@H]5O)O4)O3)CC[C@H]2O[C@@H]1[C@@H](O)C[C@H](C)[C@H]1O[C@@]2(CCCCO2)CC[C@H]1C [okadaic acid] | resistant | 
2 | microcystin |  | resistant
